Measurements published in patent US7666437B2, “Intranasal vaccine for use against disease caused by enterotoxigenic Escherichia coli” (Universidad Nacional Autonoma de Mexico, priority 2005, dated 2010).
“And” between values parts separate entries of the source, which are not always exact repeats. Equal entries are not always repeated. Ends that are not written are not given here.

Tests used:
T CD8+ lymphocytes = test system: T CD8+ lymphocytes; design: species or system BALB/c mice; conditions: mouse, in vivo
IL-4 = test system: IL-4; design: species or system BALB/c mice; conditions: mouse, in vivo
[1] = test system: children's sera after natural infection; type: binding
strain H10407 of ETEC = test system: strain H10407 of ETEC; design: species or system enterotoxigenic Escherichia coli; conditions: in vivo
T CD4+ lymphocytes = test system: T CD4+ lymphocytes; design: species or system BALB/c mice; conditions: mouse, in vivo
IL-10 = test system: IL-10; design: species or system BALB/c mice; conditions: mouse, in vivo
Dynamic light scattering = type: physicochemical; conditions: 1 mg/ml in 10 mm PBS pH 7.4; physiological conditions of pH and temperature
Protocol: Dynamic light scattering: One milliliter of 1 mg/ml CLE diluted in 10 mm PBS, pH 7.4 was used to evaluate the dynamic light scattering at different temperatures of 5, 15, 25, 35 and 37° C. Hydrodynamic diameter of CLE was determined using the Zed ziser nano series (Mc Malvern, USA).

IFN-gamma = test system: IFN-gamma; design: species or system BALB/c mice; conditions: mouse, in vivo

## CLE: 20 amino acid common linear epitope of ETEC CFA/I fimbria, amino acids 33 to 52, with terminal cysteine in position 53 (YSPASKTFESYRVMTQVHTC; not fully specified; also: disulfide at Cys20, partner not given here; listed as Escherichia coli)
T CD8+ lymphocytes
  response of T CD8+ lymphocytes: slightly higher
IL-4
  increase of IL-4 production compared to the control group: about 2.6 times
[1]
  children's sera that recognized the epitope: 100%
Strain H10407 of ETEC
  positive coprocultures (excretion of ETEC): 100% and 50%
  presence of diarrhea after the infection with ETEC: change of consistency of the feces
T CD4+ lymphocytes
  increase of T CD4+ lymphocytes with regard to control group: about 2 fold
  response of T CD4+ lymphocytes: slightly higher
IL-10
  increase of IL-10 compared to the control group: 0.8 times
Dynamic light scattering
  oligomeric structures formed (hydrodynamic diameter): trimeric structures

## CTB
T CD8+ lymphocytes
  response of T CD8+ lymphocytes: very similar to the control group
Strain H10407 of ETEC
  positive coprocultures (excretion of ETEC): 100% and 50%
  presence of diarrhea after the infection with ETEC: inconsistency of feces up to the third day
T CD4+ lymphocytes
  increase of T CD4+ lymphocytes relative to the control: 0.4 times
IFN-gamma
  response of INF-gamma: considerable response
